Earlier results, collected in patent EP3111929B1, “ORAL DISINTEGRATING FILM FORMULATION CONTAINING TADALAFIL AND PREPARATION METHOD THEREFOR” (Wooshin Labottach Co., Ltd., priority 2014, dated 2015).

Assays:
[1] = tested on: PDE5/PDE6; settings: compared with sildenafil; background statement
[2] = water; background statement

For CN1CC(=O)N2[C@H](c3ccc4c(c3)OCO4)c3[nH]c4ccccc4c3C[C@@H]2C1=O [tadalafil, (6R, 12aR)-6-(1,3-benzodioxol-5-yl)-2,3,6,7,12,12a-hexahydro-2-methyl-pyrazino[1',2':1,6]p yrido[3,4-b]indole-1,4-dion], the “selectivity of PDE5/PDE6” value [1] is given as “better than sildenafil” and the solubility [2] is given as “actually water-insoluble”.
